Consider 6 compounds from ChEMBL document CHEMBL1151563, “Synthesis of sialic acid-lipid conjugates and their neuritogenic effects on N1E.115 neuroblastoma cells” (1995).

Each structure is given as a SMILES string.

Experiment [1] relates to N1E-115. The experiment is described as follows: Effect of compound on neurite outgrowth by measuring presence of cytoskeletal component in neurofilament (NF) ELISA assay at 1 uM; value ranges from 95-105. Format: functional, Mus musculus. Background: An ELISA detects its analyte on a solid surface through an enzyme-linked reagent.
Experiment [2] deals with N1E-115. The experiment is described as follows: Effect of compound on neurite outgrowth by measuring presence of cytoskeletal component in neurofilament (NF) ELISA assay at 3 uM; value ranges from 95-105. In kind it is functional, Mus musculus.
For experiment [3], the system named is N1E-115. The experiment is described as follows: In neutral red (NR) assay the cell number relative to control was determined at 1 uM; value ranges from 95-105. Format: functional, Mus musculus.
For experiment [4], the system named is N1E-115. The experiment is described as follows: Neuritogenic activity of compound was determined at 1 uM; value ranges from 95-105. In kind it is functional, Mus musculus.
In experiment [5] the test system is N1E-115. The experiment is described as follows: Neuritogenic activity of compound was determined at 3 uM; value ranges from 105-115. In kind it is functional, Mus musculus.
Experiment [6] can be described thus: NF/NR ratio is average amount of neurofilament per cell was determined at 1 uM; value ranges from 95-105. Format: functional.
The nature of experiment [7]: NF/NR ratio is average amount of neurofilament per cell was determined at 3 uM; value ranges from 105-115. In kind it is functional.
Experiment [8] relates to N1E-115. The experiment is described as follows: In neutral red (NR) assay the cell number relative to control was determined at 1 uM; value ranges from 75-85. Format: functional, Mus musculus.
Experiment [9] relates to N1E-115. The experiment is described as follows: In neutral red (NR) assay the cell number relative to control was determined at 3 uM; value ranges from 75-85. Format: functional, Mus musculus.
The subject of experiment [10] is N1E-115. The experiment is described as follows: Neuritogenic activity of compound was determined at 1 uM; value ranges from 105-115. In kind it is functional, Mus musculus.
Experiment [11] in a line: NF/NR ratio is average amount of neurofilament per cell was determined at 1 uM; value ranges from 105-115. In kind it is functional.
The test system of experiment [12] is N1E-115. The experiment is described as follows: Neuritogenic activity of compound was determined at 3 uM; value ranges from 95-105. In kind it is functional, Mus musculus.
Experiment [13] can be described thus: NF/NR ratio is average amount of neurofilament per cell was determined at 3 uM; value ranges from 95-105. In kind it is functional.
Experiment [14] deals with N1E-115. The experiment is described as follows: Effect of compound on neurite outgrowth by measuring presence of cytoskeletal component in neurofilament (NF) ELISA assay at 3 uM; value ranges from 75-85. Format: functional, Mus musculus.
Experiment [15] has as its system N1E-115. The experiment is described as follows: In neutral red (NR) assay the cell number relative to control was determined at 3 uM; value ranges from 65-75. Format: functional, Mus musculus.
Experiment [16] deals with N1E-115. The experiment is described as follows: Neuritogenic activity of compound was determined at 3 uM; value ranges from 115-125. In kind it is functional, Mus musculus.
The nature of experiment [17]: NF/NR ratio is average amount of neurofilament per cell was determined at 3 uM; value ranges from 115-125. Format: functional.
Experiment [18] relates to N1E-115. The experiment is described as follows: Neuritogenic activity of compound was determined at 3 uM; value ranges from 125-135. In kind it is functional, Mus musculus.
Experiment [19] can be described thus: NF/NR ratio is average amount of neurofilament per cell was determined at 3 uM; value ranges from 125-135. Format: functional.

In the case of `CCCCCCCCCCCCCCCCOCOCCCO[C@]1(C(=O)O)C[C@@H](O)[C@@H](NC(C)=O)C([C@@H](O)[C@H](O)CO)O1` (some centres undefined), the Activity amounted to 95% with N1E-115 [1]; 95% in the experiment on N1E-115 [2]; 95% in the experiment on N1E-115 [3]; 95% in the experiment on N1E-115 [4]; 105% in the experiment on N1E-115 [5]. In addition, the values for the Ratio in experiment [6] and in [7] were 95 and 105, respectively.

Regarding `CCCCCCCCCCCCCCCCOC1(C(=O)[O-])CC(O)C(NC(C)=O)C([C@@H](O)[C@H](O)CO)O1.[Na+]` (some centres undefined), the Activity with N1E-115 [1] came to 95%; in the experiment with N1E-115 [2], 95%; with N1E-115 [8], 75%; in the experiment with N1E-115 [9], 75%; with N1E-115 [10], 105%; in the experiment on N1E-115 [5], 105%. Moreover, the Ratio in [11] and in experiment [7] was 105 in each case.

Turning to `CC(C)CCC[C@@H](C)[C@H]1CCC2C3CC=C4CC(C(C(=O)O)C(=O)O)CC[C@]4(C)C3CC[C@@]21C` (some centres undefined), the Activity with N1E-115 [1], in the experiment on N1E-115 [2], in the experiment on N1E-115 [4] and in the experiment on N1E-115 [12] was 95% in each case. The Ratio in experiment [6] and in experiment [13] was 95 throughout.

`CC(=O)NC1C(O)CC(OC2CC[C@@]3(C)C(=CCC4[C@@H]5CC[C@H]([C@@H](C)CCCC(C)C)[C@@]5(C)CC[C@@H]43)C2)(C(=O)[O-])OC1[C@@H](O)[C@H](O)CO.[Na+]` (some centres undefined): the Activity in the experiment with N1E-115 [1] came out at 95%; in the experiment on N1E-115 [14], 75%; in the experiment with N1E-115 [3], 95%; in the experiment on N1E-115 [15], 65%; in the experiment with N1E-115 [4], 95%; with N1E-115 [5], 105%. Also, the Ratio stood at 95 in experiment [6] and 105 in experiment [7].

For the compound `CC(=O)NC1C(O)CC(OCCCOCOC2CC[C@@]3(C)C(=CCC4[C@@H]5CC[C@H]([C@@H](C)CCCC(C)C)[C@@]5(C)CC[C@@H]43)C2)(C(=O)[O-])OC1[C@@H](O)[C@H](O)CO.[Na+]` (some centres undefined), the Activity in the experiment with N1E-115 [1] amounted to 95%; with N1E-115 [2] it was 95%; with N1E-115 [8] it was 75%; in the experiment with N1E-115 [9], 75%; in the experiment on N1E-115 [10] it was 105%; with N1E-115 [16], 115%. The Ratio in experiment [11] was 105; in experiment [17], 115.

Take `CC(=O)NC1C(O)CC(OCCCOCOCC(COCOCCCOC2(C(=O)[O-])CC(O)C(NC(C)=O)C([C@@H](O)[C@H](O)CO)O2)(COCOCCCOC2(C(=O)[O-])CC(O)C(NC(C)=O)C([C@@H](O)[C@H](O)CO)O2)CO[C@H]2CCC3(C)C(=CCC4[C@@H]3CCC3(C)[C@@H](C(C)CCCC(C)C)CC[C@@H]43)C2)(C(=O)[O-])OC1[C@@H](O)[C@H](O)CO.[Na+].[Na+].[Na+]` (some centres undefined): the Activity in the experiment on N1E-115 [1] turned out to be 95%; with N1E-115 [2], 95%; with N1E-115 [9] it was 85%; in the experiment with N1E-115 [10], 105%; with N1E-115 [18], 125%. Besides, the Ratio in [11] was 105; in experiment [19], 125.
